Results: patent US11040981B2, “Pyrrolotriazine compounds and methods of inhibiting TAM kinases” (Syros Pharmaceuticals, Inc., priority 2017, dated 2021)

Columns and labels:
AXL = biological target: T1, AXL (Homo sapiens, UniProt P30530); assay: TR-FRET kinase activity assay, AXL; type: biochemical; details: ATP at Km, 60 minutes
T1 sequence (P30530 26-894): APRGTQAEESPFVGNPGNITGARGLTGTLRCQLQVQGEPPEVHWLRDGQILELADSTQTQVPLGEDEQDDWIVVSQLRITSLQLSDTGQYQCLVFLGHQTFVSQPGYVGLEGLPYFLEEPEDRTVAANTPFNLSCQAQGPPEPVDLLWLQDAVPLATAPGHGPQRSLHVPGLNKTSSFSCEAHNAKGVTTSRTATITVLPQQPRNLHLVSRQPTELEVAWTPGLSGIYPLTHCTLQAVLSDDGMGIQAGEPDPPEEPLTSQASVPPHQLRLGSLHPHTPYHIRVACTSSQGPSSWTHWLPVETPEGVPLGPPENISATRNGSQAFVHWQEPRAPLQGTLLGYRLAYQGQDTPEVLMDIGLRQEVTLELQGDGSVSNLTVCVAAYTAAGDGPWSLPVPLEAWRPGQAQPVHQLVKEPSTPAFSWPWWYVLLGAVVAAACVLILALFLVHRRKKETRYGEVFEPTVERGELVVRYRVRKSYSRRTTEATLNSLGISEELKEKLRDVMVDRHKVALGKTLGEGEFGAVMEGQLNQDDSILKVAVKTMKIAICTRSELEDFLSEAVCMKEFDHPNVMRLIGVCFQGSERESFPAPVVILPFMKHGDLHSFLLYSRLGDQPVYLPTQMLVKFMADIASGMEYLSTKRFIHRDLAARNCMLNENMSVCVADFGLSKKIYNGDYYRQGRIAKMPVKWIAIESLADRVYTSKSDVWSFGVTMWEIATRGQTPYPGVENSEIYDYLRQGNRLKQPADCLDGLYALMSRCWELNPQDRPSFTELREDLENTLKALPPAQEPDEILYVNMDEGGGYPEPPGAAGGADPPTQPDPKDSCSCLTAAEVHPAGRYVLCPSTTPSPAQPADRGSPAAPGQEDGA
How it was run: (§1)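 Compounds were tested against each kinase with ATP set at its own Km and a labelled tyrosine peptide substrate. Following one hour at room temperature in buffer containing 10 mM MgCl2 and 1 mM DTT, phosphorylated product was detected by Europium antibody TR-FRET after EDTA quench, and IC50 values were calculated.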

TYRO3 = biological target: T2, TYRO3 (Homo sapiens, UniProt Q06418); assay: TR-FRET kinase activity assay, TYRO3; type: biochemical; details: ATP at Km, 60 minutes
T2 sequence (Q06418 41-890): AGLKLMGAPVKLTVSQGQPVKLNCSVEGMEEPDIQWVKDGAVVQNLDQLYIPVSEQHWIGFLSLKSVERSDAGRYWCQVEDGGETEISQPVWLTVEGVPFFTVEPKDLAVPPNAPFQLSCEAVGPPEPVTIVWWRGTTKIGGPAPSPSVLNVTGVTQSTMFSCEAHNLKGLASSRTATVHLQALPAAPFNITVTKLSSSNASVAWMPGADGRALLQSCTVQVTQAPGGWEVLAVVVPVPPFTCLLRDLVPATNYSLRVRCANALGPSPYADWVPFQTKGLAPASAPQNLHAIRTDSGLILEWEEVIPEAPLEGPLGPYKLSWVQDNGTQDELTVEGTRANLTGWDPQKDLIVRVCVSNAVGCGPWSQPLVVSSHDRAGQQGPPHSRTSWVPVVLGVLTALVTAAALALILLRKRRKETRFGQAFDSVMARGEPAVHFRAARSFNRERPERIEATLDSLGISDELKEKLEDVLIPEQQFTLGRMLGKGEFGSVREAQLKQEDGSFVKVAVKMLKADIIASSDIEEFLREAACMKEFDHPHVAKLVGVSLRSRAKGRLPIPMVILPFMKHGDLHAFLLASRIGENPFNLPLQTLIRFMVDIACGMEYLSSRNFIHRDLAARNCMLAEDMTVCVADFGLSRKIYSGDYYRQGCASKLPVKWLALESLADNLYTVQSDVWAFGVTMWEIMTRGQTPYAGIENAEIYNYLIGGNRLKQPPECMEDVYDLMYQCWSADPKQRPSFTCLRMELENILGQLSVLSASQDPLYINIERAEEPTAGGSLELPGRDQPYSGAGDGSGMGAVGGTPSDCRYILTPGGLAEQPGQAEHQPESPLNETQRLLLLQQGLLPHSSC
How it was run: as §1

| Structure (SMILES) | IC50 (AXL) [nM] | IC50 (TYRO3) [nM] |
| --- | --- | --- |
| COCC(C)Nc1ncc2c(-c3ccc4[nH]ccc4c3)cc(C3CCC(O)CC3)n2n1 (stereo not shown) [Compound 539] | 100 to 1000 | ≤ 100 |
| COC[C@H](C)Nc1ncc2c(-c3cnn(C(C)(C)C(=O)N4CC[C@@H](O)C4)c3)cc([C@H]3CC[C@H](O)CC3)n2n1 [Compound 555] | ≤ 100 | ≤ 100 |
| COC[C@H](C)Nc1ncc2c(-c3cnn(C(C)(C)C(=O)N4CCOCC4)c3)cc([C@H]3CC[C@](C)(O)CC3)n2n1 [Compound 560] | ≤ 100 | ≤ 100 |
| COC[C@H](C)Nc1ncc2c(-c3cnn(C(C)(C)C(=O)N4CC[C@H](O)C4)c3)cc([C@H]3CC[C@H](O)CC3)n2n1 [Compound 554] | ≤ 100 | ≤ 100 |
| C[C@@H](CC(F)(F)F)Nc1ncc2c(-c3ccc([S@](C)(=N)=O)nc3)cc([C@H]3CC[C@H](O)CC3)n2n1 [Compound 540] | ≤ 100 | ≤ 100 |
| COCC(C)Nc1ncc2c(-c3ccc(C(C)N4CCOCC4)cc3)cc(C3CCC(O)CC3)n2n1 (stereo not shown) [Compound 143] | ≤ 100 | ≤ 100 |
| C[C@@H](CC(F)(F)F)Nc1ncc2c(-c3ccc([S@@](C)(=N)=O)nc3)cc([C@H]3CC[C@H](O)CC3)n2n1 [Compound 541] | ≤ 100 | ≤ 100 |
| CC(Nc1ncc2c(-c3cnn(C4COC4)c3)cc(C3CCC(O)CC3)n2n1)c1ccccn1 (stereo not shown) [Compound 544] | 1000 to 10000 | ≤ 100 |
| COC[C@H](C)Nc1ncc2c(-c3ccc(CN4CCN(C)CC4)nc3)cc([C@H]3CC[C@H](O)CC3)n2n1 [Compound 565] | ≤ 100 | ≤ 100 |
| COC[C@H](C)Nc1ncc2c(-c3cnn(C(C)(C)C(=O)N4CCOCC4)c3)cc([C@H]3CC[C@@H](O)CC3)n2n1 [Compound 547] | ≤ 100 | ≤ 100 |
| COC[C@H](C)Nc1ncc2c(-c3ccnc(N4CCN(CC5COC5)CC4)c3)cc([C@H]3CC[C@H](O)CC3)n2n1 [Compound 512] | ≤ 100 | ≤ 100 |
| CC[C@H](C)Nc1ncc2c(C3CCNCC3)cc([C@H]3CC[C@H](O)CC3)n2n1 [Compound 135, (trans)-4-(2-((S)-sec-butylamino)-5-(piperidin-4-yl)pyrrolo[2,1-f][1,2,4]triazin-7-yl)cyclohexanol] | ≤ 100 | ≤ 100 |
| COC[C@H](C)Nc1ncc2c(-c3ccc(C(=O)O)cc3)cc([C@H]3CC[C@H](O)CC3)n2n1 [Compound 139] | ≤ 100 | ≤ 100 |
| CCCCC[C@H](C)Nc1ncc2c([C@H]3CC[C@@H](C(=O)N4CCS(=O)(=O)CC4)CC3)cc([C@H]3CC[C@H](O)CC3)n2n1 [Compound 137] | ≤ 100 | ≤ 100 |
| CC(COc1ccccc1)Nc1ncc2c(-c3cnn(C4COC4)c3)cc([C@H]3CC[C@H](O)CC3)n2n1 (mixture of isomers) [Compound 528] | ≤ 100 | ≤ 100 |
| COCC(C)Nc1ncc2c(-c3ccnc(N4CCOC(C(C)(C)O)C4)c3)cc(C3CCC(O)CC3)n2n1 (stereo not shown) [Compound 559] | ≤ 100 | ≤ 100 |
| COC[C@H](C)Nc1ncc2c(-c3ccnc(C(F)(F)F)c3)cc([C@H]3CC[C@H](O)CC3)n2n1 [Compound 584] | ≤ 100 | ≤ 100 |
| COC[C@H](C)Nc1ncc2c([C@H]3CC[C@@H](C(=O)N4CC5(COC5)C4)CC3)cc([C@H]3CC[C@H](O)CC3)n2n1 [Compound 579] | 100 to 1000 | ≤ 100 |
| COC[C@H](C)Nc1ncc2c(-c3ccnc([S@@](C)(=N)=O)c3)cc([C@H]3CC[C@H](O)CC3)n2n1 [Compound 574] | 100 to 1000 | ≤ 100 |

| Structure (SMILES) | IC50 (AXL) [nM] | IC50 (TYRO3) [nM] |
| --- | --- | --- |
| COC[C@H](C)Nc1ncc2c(-c3ccc(CN4CCOCC4)cc3)cc([C@H]3CC[C@H](O)CC3)n2n1 [Compound 140] | ≤ 100 | ≤ 100 |
| C[C@@H](CC(F)(F)F)Nc1ncc2c(-c3cncc([S@@](C)(=N)=O)c3)cc([C@H]3CC[C@H](O)CC3)n2n1 [Compound 583] | ≤ 100 | ≤ 100 |
| CC[C@H](C)Nc1ncc2c(C3CCN(c4nccc(C)n4)CC3)cc([C@H]3CC[C@H](O)CC3)n2n1 [Compound 136, (trans)-4-(2-((S)-sec-butylamino)-5-(1-(4-methylpyrimidin-2-yl)piperidin-4-yl)pyrrolo[2,1-f][1,2,4]triazin-7-yl)cyclohexanol] | 100 to 1000 | 100 to 1000 |
| CCS(=O)(=O)N1CC(CC#N)(n2cc(-c3cc([C@H]4CC[C@H](O)CC4)n4nc(N[C@@H](C)COC)ncc34)cn2)C1 [Compound 567] | ≤ 100 | ≤ 100 |
| COC[C@H](C)Nc1ncc2c(-c3cnn(C4COC4)c3)cc([C@@H]3CC[C@@H](O)[C@H](C)C3)n2n1 [Compound 589] | ≤ 100 | ≤ 100 |
| COCC(C)Nc1ncc2c(-c3ccc4ncoc4c3)cc(C3CCC(O)CC3)n2n1 (stereo not shown) [Compound 552] | ≤ 100 | ≤ 100 |
| COC[C@H](C)Nc1ncc2c([C@H]3CC[C@@H](C(=O)N4CCC(F)(F)CC4)CC3)cc([C@H]3CC[C@H](O)CC3)n2n1 [Compound 577] | ≤ 100 | ≤ 100 |
| COC[C@H](C)Nc1ncc2c(-c3ccnc(N4CCOCC4)c3)cc([C@H]3CC[C@](C)(O)CC3)n2n1 [Compound 549] | ≤ 100 | ≤ 100 |
| C[C@@H](CC(F)(F)F)Nc1ncc2c(-c3ccnc([S@@](C)(=N)=O)c3)cc([C@H]3CC[C@H](O)CC3)n2n1 [Compound 581] | ≤ 100 | ≤ 100 |
| COC[C@H](C)Nc1ncc2c(-c3cnn(C(C)(C)C(=O)N4CCCC5(COC5)C4)c3)cc([C@H]3CC[C@H](O)CC3)n2n1 [Compound 516] | ≤ 100 | ≤ 100 |
| COCC(C)Nc1ncc2c(-c3cccc(-c4nnc(C)o4)c3)cc(C3CCC(O)CC3)n2n1 (stereo not shown) [Compound 551] | ≤ 100 | ≤ 100 |
| COC[C@H](C)Nc1ncc2c(-c3cnn(C(C)(C)C(=O)N4C[C@@H](C)N[C@@H](C)C4)c3)cc([C@H]3CC[C@@H](O)CC3)n2n1 [Compound 591] | ≤ 100 | ≤ 100 |
| COCC(C)Nc1ncc2c(-c3ccc(CN4CCCC4)cc3)cc(C3CCC(O)CC3)n2n1 (stereo not shown) [Compound 142] | ≤ 100 | ≤ 100 |
| CCOCC(C)Nc1ncc2c(-c3ccc(CN4CCN(C)CC4)cc3)cc(C3CCC(O)CC3)n2n1 (stereo not shown) [Compound 138] | 100 to 1000 | ≤ 100 |
| COC[C@H](C)Nc1ncc2c(-c3cnn(C4COC4)c3)cc([C@@H]3CC[C@@H](O)C(C)(C)C3)n2n1 [Compound 570] | 100 to 1000 | ≤ 100 |
| COC[C@H](C)Nc1ncc2c(-c3ccnc(N4CCOC(C(C)(C)O)C4)c3)cc([C@H]3CC[C@H](O)CC3)n2n1 (stereo partly shown) [Compound 534] | ≤ 100 | ≤ 100 |
| COC[C@H](C)Nc1ncc2c(-c3ccc([S@](C)(=N)=O)nc3)cc([C@H]3CC[C@H](O)CC3)n2n1 [Compound 532] | ≤ 100 | ≤ 100 |
| COC[C@H](C)Nc1ncc2c(-c3ccnc([S@](C)(=N)=O)c3)cc([C@H]3CC[C@H](O)CC3)n2n1 [Compound 575] | 100 to 1000 | ≤ 100 |
| COC[C@H](C)Nc1ncc2c(-c3cnn(C(C)(C)C(=O)N4CCOC(C(C)(C)O)C4)c3)cc([C@H]3CC[C@H](O)CC3)n2n1 (stereo partly shown) [Compound 556] | ≤ 100 | ≤ 100 |
